Data reported in the NIST ThermoML archive (doi:10.1016/j.tca.2006.01.013).
± gives the expanded uncertainty stated by the source.

Settings: 101.33 kPa, Liquid, Vibrating tube method

NCCN [ethane-1,2-diamine]
Settings	mass density [kg/m3]
285.15 K	904.27 ± 0.47
285.65 K	903.81 ± 0.47
286.15 K	903.34 ± 0.47
286.65 K	902.87 ± 0.47
287.15 K	902.41 ± 0.47
287.65 K	901.94 ± 0.47
288.15 K	901.47 ± 0.47
288.65 K	901 ± 0.47
289.15 K	900.53 ± 0.47
289.65 K	900.07 ± 0.47
290.15 K	899.6 ± 0.47
290.65 K	899.13 ± 0.47
291.15 K	898.66 ± 0.46
291.65 K	898.19 ± 0.46
292.15 K	897.72 ± 0.46
292.65 K	897.25 ± 0.46
293.15 K	896.78 ± 0.46
293.65 K	896.31 ± 0.46
294.15 K	895.85 ± 0.46
294.65 K	895.38 ± 0.46
295.15 K	894.91 ± 0.46
295.65 K	894.44 ± 0.46
296.15 K	893.97 ± 0.46
296.65 K	893.5 ± 0.46
297.15 K	893.03 ± 0.46
297.65 K	892.56 ± 0.46
298.15 K	892.09 ± 0.46
298.65 K	891.62 ± 0.46
299.15 K	891.14 ± 0.46
299.65 K	890.67 ± 0.46
300.15 K	890.2 ± 0.46
300.65 K	889.73 ± 0.46
301.15 K	889.26 ± 0.46
301.65 K	888.79 ± 0.46
302.15 K	888.32 ± 0.46
302.65 K	887.85 ± 0.46
303.15 K	887.38 ± 0.46
303.65 K	886.9 ± 0.46
304.15 K	886.43 ± 0.46
304.65 K	885.96 ± 0.46
305.15 K	885.49 ± 0.46
305.65 K	885.02 ± 0.46
306.15 K	884.54 ± 0.46
306.65 K	884.07 ± 0.46
307.15 K	883.6 ± 0.46
307.65 K	883.12 ± 0.46
308.15 K	882.65 ± 0.46
308.65 K	882.18 ± 0.46
309.15 K	881.7 ± 0.46
309.65 K	881.23 ± 0.46
310.15 K	880.76 ± 0.46
310.65 K	880.28 ± 0.46
311.15 K	879.81 ± 0.46
311.65 K	879.33 ± 0.46
312.15 K	878.86 ± 0.46
312.65 K	878.38 ± 0.46
313.15 K	877.91 ± 0.46
313.65 K	877.44 ± 0.46
314.15 K	876.96 ± 0.46
314.65 K	876.48 ± 0.46
315.15 K	876.01 ± 0.46
315.65 K	875.53 ± 0.46
316.15 K	875.06 ± 0.46
316.65 K	874.58 ± 0.46
317.15 K	874.11 ± 0.46
317.65 K	873.63 ± 0.46
318.15 K	873.15 ± 0.46
318.65 K	872.68 ± 0.46
319.15 K	872.2 ± 0.46
319.65 K	871.72 ± 0.46
320.15 K	871.25 ± 0.45
320.65 K	870.77 ± 0.45
321.15 K	870.29 ± 0.45
321.65 K	869.81 ± 0.45
322.15 K	869.34 ± 0.45
322.65 K	868.86 ± 0.45
323.15 K	868.38 ± 0.45
323.65 K	867.9 ± 0.45
324.15 K	867.42 ± 0.45
324.65 K	866.94 ± 0.45
325.15 K	866.47 ± 0.45
325.65 K	865.99 ± 0.45
326.15 K	865.51 ± 0.45
326.65 K	865.03 ± 0.45
327.15 K	864.55 ± 0.45
327.65 K	864.07 ± 0.45
328.15 K	863.59 ± 0.45
328.65 K	863.11 ± 0.45
329.15 K	862.63 ± 0.45
329.65 K	862.14 ± 0.45
330.15 K	861.66 ± 0.45
330.65 K	861.18 ± 0.45
331.15 K	860.7 ± 0.45
331.65 K	860.22 ± 0.45
332.15 K	859.74 ± 0.45
332.65 K	859.25 ± 0.45
333.15 K	858.77 ± 0.45
333.65 K	858.29 ± 0.45
334.15 K	857.81 ± 0.45
334.65 K	857.32 ± 0.45
335.15 K	856.84 ± 0.45
335.65 K	856.36 ± 0.45
336.15 K	855.87 ± 0.45
336.65 K	855.39 ± 0.45
337.15 K	854.91 ± 0.45
337.65 K	854.42 ± 0.45
338.15 K	853.93 ± 0.45
338.65 K	853.45 ± 0.45
339.15 K	852.96 ± 0.45
339.65 K	852.48 ± 0.45
340.15 K	851.99 ± 0.45
340.65 K	851.51 ± 0.45
341.15 K	851.02 ± 0.45
341.65 K	850.53 ± 0.45
342.15 K	850.05 ± 0.45
342.65 K	849.56 ± 0.45
343.15 K	849.07 ± 0.45
343.65 K	848.58 ± 0.45
344.15 K	848.1 ± 0.45
344.65 K	847.61 ± 0.45
345.15 K	847.12 ± 0.45
345.65 K	846.63 ± 0.45
346.15 K	846.14 ± 0.45
346.65 K	845.66 ± 0.45
347.15 K	845.17 ± 0.45
347.65 K	844.68 ± 0.45
348.15 K	844.19 ± 0.45
348.65 K	843.7 ± 0.45
349.15 K	843.21 ± 0.45
349.65 K	842.72 ± 0.45
350.15 K	842.23 ± 0.45
350.65 K	841.75 ± 0.45
351.15 K	841.26 ± 0.45
351.65 K	840.76 ± 0.44
352.15 K	840.27 ± 0.44
352.65 K	839.78 ± 0.44
353.15 K	839.29 ± 0.44
353.65 K	838.8 ± 0.44
354.15 K	838.31 ± 0.44
354.65 K	837.81 ± 0.44
355.14 K	837.32 ± 0.44
355.65 K	836.83 ± 0.44
356.15 K	836.33 ± 0.44
356.64 K	835.84 ± 0.44
357.15 K	835.35 ± 0.44
357.65 K	834.85 ± 0.44
358.14 K	834.36 ± 0.44
358.64 K	833.86 ± 0.44
359.14 K	833.37 ± 0.44
359.64 K	832.87 ± 0.44
360.14 K	832.38 ± 0.44
360.64 K	831.88 ± 0.44
361.14 K	831.38 ± 0.44
361.65 K	830.89 ± 0.44
362.15 K	830.39 ± 0.44
362.65 K	829.89 ± 0.44
363.15 K	829.4 ± 0.44
